Measured values reported in publication PMC2721901 (Molecular cell, 2009).

Key:
Format in all cases: biochemical
[1] = target: ISW1a (Saccharomyces cerevisiae, UniProt P38144); experiment: nucleosome mobilization, native gel shift; conditions: 70N0 nucleosomes, 90 or 800 µM ATP, 5 mM MgCl2, pH 7.6, 20°C
[2] = target: T1, ISW2 (Saccharomyces cerevisiae, UniProt Q08773); experiment: nucleosome mobilization, native gel shift; conditions: 70N0 nucleosomes, 90 or 800 µM ATP, 5 mM MgCl2, pH 7.6, 20°C
T1 sequence (Q08773 whole entry): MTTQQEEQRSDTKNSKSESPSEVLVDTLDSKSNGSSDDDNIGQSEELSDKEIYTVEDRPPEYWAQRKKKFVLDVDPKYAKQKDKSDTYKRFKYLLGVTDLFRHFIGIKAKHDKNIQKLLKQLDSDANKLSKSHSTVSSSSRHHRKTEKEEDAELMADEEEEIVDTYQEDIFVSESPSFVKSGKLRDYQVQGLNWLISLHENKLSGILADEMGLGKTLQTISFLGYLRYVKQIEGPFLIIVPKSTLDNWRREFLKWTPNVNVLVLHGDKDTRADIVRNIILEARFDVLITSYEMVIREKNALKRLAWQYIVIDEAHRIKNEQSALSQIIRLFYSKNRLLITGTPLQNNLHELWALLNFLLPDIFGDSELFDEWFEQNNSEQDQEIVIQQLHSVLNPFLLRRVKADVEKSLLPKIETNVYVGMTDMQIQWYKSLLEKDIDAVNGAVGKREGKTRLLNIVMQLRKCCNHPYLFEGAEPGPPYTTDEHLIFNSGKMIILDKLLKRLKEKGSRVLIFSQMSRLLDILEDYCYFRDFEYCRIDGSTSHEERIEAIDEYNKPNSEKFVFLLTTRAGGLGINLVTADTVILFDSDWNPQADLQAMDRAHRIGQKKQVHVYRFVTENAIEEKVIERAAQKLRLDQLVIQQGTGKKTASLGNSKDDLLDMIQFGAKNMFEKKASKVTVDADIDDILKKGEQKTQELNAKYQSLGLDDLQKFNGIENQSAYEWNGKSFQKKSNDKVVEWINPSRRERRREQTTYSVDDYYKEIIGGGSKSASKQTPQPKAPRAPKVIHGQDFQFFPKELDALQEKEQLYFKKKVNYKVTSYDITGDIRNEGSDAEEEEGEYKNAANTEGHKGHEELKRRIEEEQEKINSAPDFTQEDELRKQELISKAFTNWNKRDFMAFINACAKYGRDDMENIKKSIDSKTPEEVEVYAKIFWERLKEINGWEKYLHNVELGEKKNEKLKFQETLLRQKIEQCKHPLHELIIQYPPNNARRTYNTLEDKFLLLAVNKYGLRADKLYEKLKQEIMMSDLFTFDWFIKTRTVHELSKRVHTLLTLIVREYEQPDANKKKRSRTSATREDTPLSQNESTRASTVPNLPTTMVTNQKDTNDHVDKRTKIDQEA
T1 sequence (P53125 whole entry partner): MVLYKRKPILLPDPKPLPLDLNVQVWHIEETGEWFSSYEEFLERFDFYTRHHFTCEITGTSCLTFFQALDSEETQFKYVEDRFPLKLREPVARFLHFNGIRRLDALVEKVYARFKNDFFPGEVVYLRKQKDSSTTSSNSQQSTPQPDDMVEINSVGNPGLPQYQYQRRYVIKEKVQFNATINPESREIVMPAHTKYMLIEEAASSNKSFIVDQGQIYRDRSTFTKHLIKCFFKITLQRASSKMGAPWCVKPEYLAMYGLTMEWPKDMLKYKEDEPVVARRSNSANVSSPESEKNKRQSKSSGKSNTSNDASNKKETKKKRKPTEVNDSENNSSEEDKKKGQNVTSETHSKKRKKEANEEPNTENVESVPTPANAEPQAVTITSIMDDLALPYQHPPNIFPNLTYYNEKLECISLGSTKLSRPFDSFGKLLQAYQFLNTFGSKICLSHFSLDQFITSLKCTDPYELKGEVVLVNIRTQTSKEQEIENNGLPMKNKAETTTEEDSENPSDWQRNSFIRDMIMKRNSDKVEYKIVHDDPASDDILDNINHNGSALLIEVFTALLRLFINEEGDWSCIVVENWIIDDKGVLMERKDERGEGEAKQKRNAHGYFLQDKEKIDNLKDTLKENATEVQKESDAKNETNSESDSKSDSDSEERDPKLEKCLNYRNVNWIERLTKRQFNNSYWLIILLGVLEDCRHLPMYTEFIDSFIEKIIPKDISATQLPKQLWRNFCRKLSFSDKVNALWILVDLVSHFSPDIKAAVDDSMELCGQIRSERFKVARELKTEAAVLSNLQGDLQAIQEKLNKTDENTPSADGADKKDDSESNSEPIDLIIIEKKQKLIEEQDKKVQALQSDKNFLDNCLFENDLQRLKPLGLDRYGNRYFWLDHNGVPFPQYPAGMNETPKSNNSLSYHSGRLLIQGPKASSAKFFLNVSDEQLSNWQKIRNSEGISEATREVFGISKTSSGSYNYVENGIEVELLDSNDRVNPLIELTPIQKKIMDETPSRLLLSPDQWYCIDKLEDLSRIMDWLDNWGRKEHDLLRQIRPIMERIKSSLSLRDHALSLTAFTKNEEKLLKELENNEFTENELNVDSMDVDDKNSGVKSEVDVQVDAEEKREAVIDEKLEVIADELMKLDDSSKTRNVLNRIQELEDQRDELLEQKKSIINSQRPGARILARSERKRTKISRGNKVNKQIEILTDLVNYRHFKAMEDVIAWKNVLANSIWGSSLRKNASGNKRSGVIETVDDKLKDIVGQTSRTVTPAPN
T1 sequence (Q04603 whole entry partner): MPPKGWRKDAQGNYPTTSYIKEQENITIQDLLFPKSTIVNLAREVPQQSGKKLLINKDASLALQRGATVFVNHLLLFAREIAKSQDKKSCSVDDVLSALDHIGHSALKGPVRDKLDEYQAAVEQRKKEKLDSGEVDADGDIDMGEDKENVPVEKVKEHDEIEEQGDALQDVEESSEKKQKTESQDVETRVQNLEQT
T1 sequence (P40366 whole entry partner): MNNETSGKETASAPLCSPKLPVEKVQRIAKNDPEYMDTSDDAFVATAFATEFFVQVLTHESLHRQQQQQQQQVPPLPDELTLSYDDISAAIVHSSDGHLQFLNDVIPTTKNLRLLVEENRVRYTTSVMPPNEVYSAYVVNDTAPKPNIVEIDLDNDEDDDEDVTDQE

[3] = target: T1, ISW2; experiment: competitive inhibitor assay against ATP; conditions: competitive with ATP at active site

ISW1a, sequence (P38144 whole entry): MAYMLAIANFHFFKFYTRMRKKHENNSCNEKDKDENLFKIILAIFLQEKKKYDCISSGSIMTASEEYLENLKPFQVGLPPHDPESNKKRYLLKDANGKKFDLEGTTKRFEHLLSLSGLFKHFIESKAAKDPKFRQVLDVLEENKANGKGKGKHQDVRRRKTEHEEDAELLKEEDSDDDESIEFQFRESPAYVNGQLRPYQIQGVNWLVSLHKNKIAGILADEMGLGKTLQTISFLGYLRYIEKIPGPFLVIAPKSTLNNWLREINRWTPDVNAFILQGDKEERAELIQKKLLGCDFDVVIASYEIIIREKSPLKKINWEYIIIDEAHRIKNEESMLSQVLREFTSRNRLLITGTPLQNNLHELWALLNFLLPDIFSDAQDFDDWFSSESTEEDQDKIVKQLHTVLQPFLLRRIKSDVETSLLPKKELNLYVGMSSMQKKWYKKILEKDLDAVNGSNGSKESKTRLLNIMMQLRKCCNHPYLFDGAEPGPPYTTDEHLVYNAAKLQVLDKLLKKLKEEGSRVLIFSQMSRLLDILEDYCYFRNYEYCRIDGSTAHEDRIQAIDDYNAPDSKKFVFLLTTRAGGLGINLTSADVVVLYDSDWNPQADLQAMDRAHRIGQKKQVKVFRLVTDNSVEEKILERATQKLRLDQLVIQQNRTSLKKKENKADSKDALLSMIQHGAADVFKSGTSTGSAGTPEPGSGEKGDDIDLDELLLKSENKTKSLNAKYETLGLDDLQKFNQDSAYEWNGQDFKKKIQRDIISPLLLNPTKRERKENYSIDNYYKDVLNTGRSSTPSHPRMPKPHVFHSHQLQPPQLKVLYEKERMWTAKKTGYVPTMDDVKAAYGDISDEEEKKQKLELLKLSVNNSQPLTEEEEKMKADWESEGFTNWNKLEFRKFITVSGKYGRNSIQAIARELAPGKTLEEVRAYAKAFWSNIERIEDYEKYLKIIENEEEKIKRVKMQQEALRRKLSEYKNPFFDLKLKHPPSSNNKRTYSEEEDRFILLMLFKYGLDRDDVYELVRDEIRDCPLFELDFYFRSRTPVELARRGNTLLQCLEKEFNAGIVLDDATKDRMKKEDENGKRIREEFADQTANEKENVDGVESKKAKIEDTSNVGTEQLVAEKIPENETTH
ISW1a, sequence (P43596 whole entry partner): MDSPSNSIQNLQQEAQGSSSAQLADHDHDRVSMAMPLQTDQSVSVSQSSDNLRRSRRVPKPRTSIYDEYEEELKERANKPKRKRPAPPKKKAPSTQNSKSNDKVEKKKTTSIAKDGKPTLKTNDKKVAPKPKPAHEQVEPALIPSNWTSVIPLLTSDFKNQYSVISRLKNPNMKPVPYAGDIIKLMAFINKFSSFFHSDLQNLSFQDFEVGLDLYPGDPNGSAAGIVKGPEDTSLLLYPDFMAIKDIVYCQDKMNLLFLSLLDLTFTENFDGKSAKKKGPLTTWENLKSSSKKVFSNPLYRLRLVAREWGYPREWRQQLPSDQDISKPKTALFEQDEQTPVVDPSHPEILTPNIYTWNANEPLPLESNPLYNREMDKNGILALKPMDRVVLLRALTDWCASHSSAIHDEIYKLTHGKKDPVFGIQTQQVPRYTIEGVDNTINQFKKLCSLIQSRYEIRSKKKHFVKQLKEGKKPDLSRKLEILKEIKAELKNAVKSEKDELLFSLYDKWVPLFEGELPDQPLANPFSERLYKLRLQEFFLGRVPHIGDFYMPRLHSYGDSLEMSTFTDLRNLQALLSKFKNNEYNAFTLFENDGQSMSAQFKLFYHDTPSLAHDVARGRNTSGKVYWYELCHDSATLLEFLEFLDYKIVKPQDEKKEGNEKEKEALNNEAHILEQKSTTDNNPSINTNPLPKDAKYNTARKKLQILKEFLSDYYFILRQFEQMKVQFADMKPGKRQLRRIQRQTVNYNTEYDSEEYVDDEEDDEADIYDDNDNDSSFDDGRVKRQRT

Nc1ncnc2c1ncn2[C@@H]1O[C@H](COP(=O)(O)OP(=O)(O)OP(=O)(O)O)[C@@H](O)[C@H]1O [ATP]
nucleosome mobilization, native gel shift [1]: ATP was found to be required for template commitment by ISW1a
nucleosome mobilization, native gel shift [2]: Template commitment of ISW2 required initiation of the remodeling process rather than just ISW2 binding

Nc1ncnc2c1ncn2[C@@H]1O[C@H](COP(=O)(O)OP(=O)(O)O)[C@@H](O)[C@H]1O [ADP]
competitive inhibitor assay against ATP [3]: ADP and γ-S-ATP were shown to be bound at the active site of ISW2
